Source: US8802597B2, “Herbicidal pyrimidines” (E I du Pont de Nemours and Company, priority 2003, dated 2014)

Columns and labels:
[1] = tested on: green foxtail (Setaria viridis); assay: Test C postemergence; assay type: in vivo; conditions: for Plant response rating, Foxtail, Green: 250 g ai/ha, scale 0 to 100; for pest or weed control at 125 g/ha: 125 g ai/ha
Method in brief: (§1)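 Rating scale 0–100: 0 means no effect, 100 complete control; taken visually 12 to 14 days post-treatment versus controls. Pre- and postemergence greenhouse applications, postemergence at 1- to 4-leaf stage, non-phytotoxic solvent with surfactant as carrier.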

[2] = tested on: canarygrass (Phalaris minor); assay: Test C postemergence; assay type: in vivo; conditions: for Plant response rating, Canarygrass: scale 0 to 100
Method in brief: as §1

[3] = tested on: windgrass (Apera spica-venti); assay: Test C postemergence; assay type: in vivo; conditions: for Plant response rating, Windgrass: 250 g ai/ha, scale 0 to 100; for pest or weed control at 125 g/ha: 125 g ai/ha
Method in brief: as §1

[4] = tested on: downy brome (Bromus tectorum); assay: Test C postemergence; assay type: in vivo; conditions: for Plant response rating, Bromegrass, Downy: scale 0 to 100
Method in brief: as §1

[5] = tested on: winter barley (Hordeum vulgare); assay: Test C postemergence; assay type: in vivo; conditions: for Plant response rating (scale of 0 to 100), Barley: 31 g ai/ha; for Plant response rating, Barley: scale 0 to 100; for plant injury at 62 g/ha: 62 g ai/ha
Method in brief: as §1

[6] = tested on: blackgrass (Alopecurus myosuroides); assay: Test C postemergence; assay type: in vivo; conditions: for Plant response rating, Blackgrass: scale 0 to 100
Method in brief: as §1

[7] = tested on: wheat (Triticum aestivum); assay: Test C postemergence; assay type: in vivo; conditions: for Plant response rating, Wheat: 250 g ai/ha, scale 0 to 100; for plant injury at 125 g/ha: 125 g ai/ha
Method in brief: as §1

[8] = tested on: Italian ryegrass (Lolium multiflorum); assay: Test C postemergence; assay type: in vivo; conditions: for Plant response rating, Ryegrass, Italian: 250 g ai/ha, scale 0 to 100; for pest or weed control at 125 g/ha: 125 g ai/ha
Method in brief: as §1

wild oat (Avena fatua) = assay: Test C postemergence; assay type: in vivo; conditions: for Plant response rating, Oat, Wild: 250 g ai/ha, scale 0 to 100; for pest or weed control at 125 g/ha: 125 g ai/ha
Method in brief: as §1

[9] = Setaria viridis, post-emergence, scale 0 to 100 (0 no effect, 100 complete control), read-out: Foxtail, Green plant response rating
[10] = Apera spica-venti, post-emergence, scale 0 to 100 (0 no effect, 100 complete control), read-out: Windgrass plant response rating
[11] = Hordeum vulgare, post-emergence, scale 0 to 100 (0 no effect, 100 complete control), read-out: Barley plant response rating
[12] = Triticum aestivum, post-emergence, scale 0 to 100 (0 no effect, 100 complete control), read-out: Wheat plant response rating
[13] = Lolium multiflorum, post-emergence, scale 0 to 100 (0 no effect, 100 complete control), read-out: Ryegrass, Italian plant response rating
[14] = Avena fatua, post-emergence, scale 0 to 100 (0 no effect, 100 complete control), read-out: Oat, Wild plant response rating

Row | Compound | Plant response rating (scale of 0 to 100), Foxtail, Green ([1]; 31 g ai/ha) | Plant response rating, Foxtail, Green [1] | pest or weed control at 125 g/ha [1, 9] [%] | Plant response rating (scale of 0 to 100), Canarygrass ([2]; 31 g ai/ha) | Plant response rating, Canarygrass ([2]; 250 g ai/ha) | Plant response rating (scale of 0 to 100), Windgrass ([3]; 31 g ai/ha) | Plant response rating, Windgrass [3] | pest or weed control at 125 g/ha [3, 10] [%] | Plant response rating (scale of 0 to 100), Bromegrass, Downy ([4]; 31 g ai/ha) | Plant response rating, Bromegrass, Downy ([4]; 250 g ai/ha) | Plant response rating (scale of 0 to 100), Barley [5] | Plant response rating, Barley ([5]; 250 g ai/ha) | plant injury at 62 g/ha [5, 11] [%] | Plant response rating (scale of 0 to 100), Blackgrass ([6]; 31 g ai/ha) | Plant response rating, Blackgrass ([6]; 250 g ai/ha) | Plant response rating (scale of 0 to 100), Wheat ([7]; 31 g ai/ha) | Plant response rating, Wheat [7] | plant injury at 125 g/ha [7, 12] [%] | Plant response rating (scale of 0 to 100), Ryegrass, Italian ([8]; 31 g ai/ha) | Plant response rating, Ryegrass, Italian [8] | other results
1 | COC(=O)c1nc(C(C)C)nc(N)c1Br [Compound 3] | 20 | 35 | 35 | 10 | 10 | 10 | 30 | 30 | 20 | 20 | 0 | 30 | 0 | 0 | 0 | 0 | 10 | 0 | 35 | 35 | pest or weed control at 62 g/ha ([1]; Setaria viridis, post-emergence, 62 g ai/ha, scale 0 to 100 (0 no effect, 100 complete control), read-out: Foxtail, Green plant response rating): 30%; Plant response rating, Canarygrass ([2]; 125 g ai/ha): 10; pest or weed control at 62 g/ha ([2]; Phalaris minor, post-emergence, 62 g ai/ha, scale 0 to 100 (0 no effect, 100 complete control), read-out: Canarygrass plant response rating): 10%; pest or weed control at 62 g/ha ([3]; Apera spica-venti, post-emergence, 62 g ai/ha, scale 0 to 100 (0 no effect, 100 complete control), read-out: Windgrass plant response rating): 30%; Plant response rating, Bromegrass, Downy ([4]; 125 g ai/ha): 20; pest or weed control at 62 g/ha ([4]; Bromus tectorum, post-emergence, 62 g ai/ha, scale 0 to 100 (0 no effect, 100 complete control), read-out: Bromegrass, Downy plant response rating): 20%; Plant response rating, Barley ([5]; 125 g ai/ha): 0; Plant response rating, Blackgrass ([6]; 125 g ai/ha): 0; pest or weed control at 62 g/ha ([6]; Alopecurus myosuroides, post-emergence, 62 g ai/ha, scale 0 to 100 (0 no effect, 100 complete control), read-out: Blackgrass plant response rating): 0%; plant injury at 62 g/ha ([7]; Triticum aestivum, post-emergence, 62 g ai/ha, scale 0 to 100 (0 no effect, 100 complete control), read-out: Wheat plant response rating): 0%; pest or weed control at 62 g/ha ([8]; Lolium multiflorum, post-emergence, 62 g ai/ha, scale 0 to 100 (0 no effect, 100 complete control), read-out: Ryegrass, Italian plant response rating): 35%; pest or weed control at 125 g/ha [8, 13]: 35%; Plant response rating (scale of 0 to 100), Oat, Wild (wild oat (Avena fatua); 31 g ai/ha): 30; Plant response rating, Oat, Wild (wild oat (Avena fatua)): 40; pest or weed control at 62 g/ha (wild oat (Avena fatua); Avena fatua, post-emergence, 62 g ai/ha, scale 0 to 100 (0 no effect, 100 complete control), read-out: Oat, Wild plant response rating): 30%; pest or weed control at 125 g/ha (wild oat (Avena fatua); [14]): 40%; melting point: 107 to 109 °C
2 | Nc1nc(C2CC2)nc(C(=O)OCc2ccccc2)c1Cl [Compound 78, phenylmethyl 6-amino-5-chloro-2-cyclopropyl-4-pyrimidinecarboxylate] | 25 | 75 | 70 | 0 | 0 | 5 | 40 | 30 | 5 | 55 | 5 | 90 | 5 | 0 | 50 | 20 | 55 | 30 | 0 | 25 | Plant response rating (scale of 0 to 100), Foxtail, Green ([1]; 62 g ai/ha): 40; Plant response rating (scale of 0 to 100), Canarygrass ([2]; 62 g ai/ha): 0; pest or weed control at 125 g/ha ([2]; Phalaris minor, post-emergence, 125 g ai/ha, scale 0 to 100 (0 no effect, 100 complete control), read-out: Canarygrass plant response rating): 0%; Plant response rating (scale of 0 to 100), Windgrass ([3]; 62 g ai/ha): 30; Plant response rating (scale of 0 to 100), Bromegrass, Downy ([4]; 62 g ai/ha): 10; pest or weed control at 125 g/ha ([4]; Bromus tectorum, post-emergence, 125 g ai/ha, scale 0 to 100 (0 no effect, 100 complete control), read-out: Bromegrass, Downy plant response rating): 15%; plant injury at 125 g/ha ([5]; Hordeum vulgare, post-emergence, 125 g ai/ha, scale 0 to 100 (0 no effect, 100 complete control), read-out: Barley plant response rating): 30%; Plant response rating (scale of 0 to 100), Blackgrass ([6]; 62 g ai/ha): 5; pest or weed control at 125 g/ha ([6]; Alopecurus myosuroides, post-emergence, 125 g ai/ha, scale 0 to 100 (0 no effect, 100 complete control), read-out: Blackgrass plant response rating): 5%; Plant response rating (scale of 0 to 100), Wheat ([7]; 62 g ai/ha): 20; Plant response rating (scale of 0 to 100), Ryegrass, Italian ([8]; 62 g ai/ha): 10; pest or weed control at 125 g/ha [8, 13]: 20%; Plant response rating (scale of 0 to 100), Oat, Wild (wild oat (Avena fatua); 31 g ai/ha): 5; Plant response rating (scale of 0 to 100), Oat, Wild (wild oat (Avena fatua); 62 g ai/ha): 10; Plant response rating, Oat, Wild (wild oat (Avena fatua)): 60; pest or weed control at 125 g/ha (wild oat (Avena fatua); [14]): 60%; melting point: 126 to 128 °C
